These results are taken from patent US12122750B2, “AT2R antagonists and uses thereof” (Eli Lilly and Company, priority 2022, dated 2024).

In general, Ki refers to a dissociation constant, usually derived from enzyme kinetics or from competition with a known ligand. For orientation: IC50 means the midpoint of a concentration-inhibition curve. A lower IC50 goes with greater potency in that assay. By IC80 is commonly meant the concentration at which the effect reaches the 80% level. As a reminder, the inhibition is the relative decrease from the control value, in per cent.

Data set [1] has as its target recombinant human angiotensin-II receptor subtype 2 (hAT2R) (Homo sapiens (Human), UniProt P50052). Put plainly: Competitive radioligand binding assay (SPA), hAT2R HEK293 membranes. The settings on record: [125I]-Tyr4-Angiotensin-II, read-out: AT2R Ki. Put shortly: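 SPA competition binding on membranes from HEK293 cells stably transfected with hAT2R (0.25 μg/well, with 0.1 mg/well PVT-WGA beads) in 50 mM Tris-HCl pH 7.5, 150 mM NaCl, 0.1% fatty-acid-free BSA. Ten-point four-fold dilution curves ran from 50 μM top final concentration. Bound radioactivity was counted (CPM) after 10 h at room temperature.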

Data set [2] addresses recombinant human angiotensin-II receptor subtype I (hAT1R) (Homo sapiens (Human), UniProt P30556). Nature of the data set: Competitive radioligand binding assay (SPA), hAT1R/CHO membranes. To be noted: [125I]-Tyr4-Angiotensin-II, read-out: AT1R Ki. The method, then: Membranes hATIR/CHO were Purchased from PerkinElmer, Inc.
Cellular membranes prepared from Chinese hamster ovary (CHO) cells which expressed recombinant human angiotensin-II receptor subtype I (hAT1R), were purchased from PerkinElmer (Catalog Number ES-072-M400UA).
(§1) Receptor Binding Protocol
(§2) The assays were performed with a scintillation proximity assay (SPA) method using polyvinyltoluene (PVT) wheat germ agglutinin-coupled SPA beads (Perkin Elmer Cat. #RPNQ0001). Assay buffer containing BSA (50 mM Tris-HCl, pH 7.5, 150 mM NaCl, 0.1% w/v fatty-acid free BSA) was used for preparing radioligand, membrane and SPA bead reagent dilution to working stock concentrations. Reference control and test compounds were diluted to obtain ten-point concentration response curves using a four-fold serial dilution protocol onto assay plates, dispensed acoustically from DMSO stock using automated ECHO instrument technology (Labcyte, Inc.). Concentration response curves were routinely generated with the highest final assay concentration for the reference angiotensin-II control at 50 nM, and the highest final assay concentration for the test compounds at 50 μM. […] The hAT2R membrane was combined with PVT-WGA SPA beads to obtain a final assay concentration of 0.25 μg/well hAT2R membrane+0.1 mg/well PVT-WGA SPA bead. And the hAT1R membrane PVT-WGA SPA bead final concentrations was 0.5 μg/well hAT1R membrane+0.1 mg/well PVT-WGA SPA bead. […] For all assays, radioligand addition was followed by the addition of membrane-SPA bead mixture, i.e., the hAT2R membrane-SPA bead mixture (30 μL), the rAT2R membrane-SPA bead mixture, or the AT1R membrane-SPA bead mixture (30 μL) into the assay plate. All dispensing steps were added using a Multiflo FX (Biotek, Inc.) bulk dispensing instrument. After reagent addition steps, assay plates were sealed, and plate contents mixed for one minute on a benchtop micro-plate shaker. Following a 10-hour incubation at room temperature to allow for bead settling and radioligand binding, bound radioactivity was quantitated using a Microbeta Trilux scintillation counter (Perkin Elmer) and expressed as counts per minute (CPM). The unlabeled angiotensin-II control was included on each plate as an experimental assay reference.
(§3) Compounds were tested in a 10-point concentration response curve (CRC) format, with each plate containing the positive control angiotensin-II positive reference compound, and experimental compounds. Maximum binding response (Max) was determined in 32 control wells per plate using assay buffer treatment only, and the minimum binding controls or nonspecific binding response (Min) was also determined in 32 wells per plate by the treatment with 50 nM angiotensin-II. All test sample concentration responses were normalized to the control response and calculated as a percent of the maximal response after correcting for nonspecific binding as shown below: % Specific inhibition=100%−[(CPM−Min)/(Max−Min)×100%]
(§4) Percent specific binding (y-axis) was plotted versus the log concentration of compound (x-axis).
Binding affinities for compounds of the present disclosure were determined according to the assay described herein.
Binding affinities for compounds of the present disclosure were determined according to the assay described above.

The target in data set [3] is rAT2R (Rattus norvegicus (Rat), UniProt P35351). Nature of the data set: Rat binding affinity, competitive radioligand binding assay (SPA), rAT2R HEK293 membranes. To be noted: rat AT2R. How it is done:
Membrane Preparation Protocol (hAT2R HEK293 and rAT2R HEK293)
as §1, §2, §3, §4

Data set [4] concerns the target T1, AT2R (Rattus norvegicus (Rat), UniProt P35351). Put plainly: AT2R ex vivo autoradiography receptor occupancy in rat adrenal sections after oral dosing. Also on record: species or system Sprague Dawley rats. To be noted: for IC50 / IC80: plasma concentration plotted vs % receptor occupancy, rat; for receptor occupancy at 10 mg/kg: oral dose 10 mg/kg; for receptor occupancy at 30 mg/kg: oral dose 30 mg/kg; for receptor occupancy at 100 mg/kg: oral dose 100 mg/kg; for ex vivo IC50 (TER) / ex vivo IC80 (TER): rat receptor occupancy; for receptor occupancy at 3 mg/kg: oral dose 3 mg/kg. The method, then:
The ability for a compound to engage its target may be measured by determining compound's receptor occupancy. An ex vivo autoradiography assay was conducted as described herein.
Twenty male Sprague Dawley rats (140-150 gms, Envigo) were maintained under controlled laboratory conditions on a 12 hr light cycle with ad lib access to food and water. […] Following a pre-determined survival time, plasma and adrenals were collected and frozen at −80° C. until analyzed. Frozen 20 μm sections of an adrenal from each animal were collected onto gelatin-coated slides and stored at −80° C. […] The specific ligand binding for each animal is calculated by subtracting the non-specific binding from the total bound.

Data set [5] is described as follows: Plasma concentration of test compound in the receptor occupancy study. In kind it is in vivo, Sprague Dawley rats. The settings on record: rat. How it is done:
Twenty male Sprague Dawley rats (140-150 gms, Envigo) were maintained under controlled laboratory conditions on a 12 hr light cycle with ad lib access to food and water. On the morning of the experiment, rats were orally dosed with vehicle (1% (w/v) hydroxyethylcellulose, 0.25% (w/v) polysorbate 80, 0.05% (v/v) antifoam 1510-US in purified water) or appropriate doses of test compound (5 mL/kg, n=4 rats/group) using the same vehicle. Following a pre-determined survival time, plasma and adrenals were collected and frozen at −80° C. until analyzed. Frozen 20 μm sections of an adrenal from each animal were collected onto gelatin-coated slides and stored at −80° C. Autoradiography to detect AT2R occupancy (RO) was conducted under cold conditions using methods modified from F. M. J. Heemskerk, et al, Brain Research 677 (1995) 29-38. Total binding was defined by 0.3 nM ^125I-CGP42112 (selective AT2R agonist, Perkin Elmer, Inc) with the addition of 10 μM unlabeled AngII used to define non-specific binding. Following exposure to a phosphoimager plate (BAS TR2025, GE Healthcare), the bound radioactivity is calculated with use of MCID software (Imaging Research, Inc) and calibrated ^125I standards (American Radiolabeled Chemicals, Inc). The specific ligand binding for each animal is calculated by subtracting the non-specific binding from the total bound.

In data set [6] the target is T1, AT2R. Put plainly: Inhibition of C21-induced increase in dermal blood flow (laser Doppler imaging). In kind it is in vivo, Sprague Dawley rats.

Chain of recombinant human angiotensin-II receptor subtype I (hAT1R) (P30556 whole entry): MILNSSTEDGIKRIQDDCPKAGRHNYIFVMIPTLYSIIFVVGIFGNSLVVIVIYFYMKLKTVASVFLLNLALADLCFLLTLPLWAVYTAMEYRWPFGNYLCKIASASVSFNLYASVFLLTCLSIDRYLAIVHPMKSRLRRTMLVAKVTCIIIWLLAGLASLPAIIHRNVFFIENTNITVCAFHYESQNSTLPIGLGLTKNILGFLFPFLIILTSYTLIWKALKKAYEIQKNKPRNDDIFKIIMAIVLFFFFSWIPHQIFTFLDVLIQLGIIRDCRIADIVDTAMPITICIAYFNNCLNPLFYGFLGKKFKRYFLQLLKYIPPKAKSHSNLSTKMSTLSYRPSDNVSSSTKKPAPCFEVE
Chain of recombinant human angiotensin-II receptor subtype 2 (hAT2R) (P50052 whole entry): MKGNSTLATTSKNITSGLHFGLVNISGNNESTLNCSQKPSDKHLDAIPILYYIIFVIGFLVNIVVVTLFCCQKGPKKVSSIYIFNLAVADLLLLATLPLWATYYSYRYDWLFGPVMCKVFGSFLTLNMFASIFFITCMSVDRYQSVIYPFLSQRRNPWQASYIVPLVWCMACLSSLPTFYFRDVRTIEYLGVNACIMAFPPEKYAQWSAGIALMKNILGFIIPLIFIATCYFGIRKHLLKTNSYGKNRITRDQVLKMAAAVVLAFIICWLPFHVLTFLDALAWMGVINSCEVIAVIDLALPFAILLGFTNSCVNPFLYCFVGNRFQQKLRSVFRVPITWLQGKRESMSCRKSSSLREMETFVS
Chain of rAT2R (P35351 whole entry): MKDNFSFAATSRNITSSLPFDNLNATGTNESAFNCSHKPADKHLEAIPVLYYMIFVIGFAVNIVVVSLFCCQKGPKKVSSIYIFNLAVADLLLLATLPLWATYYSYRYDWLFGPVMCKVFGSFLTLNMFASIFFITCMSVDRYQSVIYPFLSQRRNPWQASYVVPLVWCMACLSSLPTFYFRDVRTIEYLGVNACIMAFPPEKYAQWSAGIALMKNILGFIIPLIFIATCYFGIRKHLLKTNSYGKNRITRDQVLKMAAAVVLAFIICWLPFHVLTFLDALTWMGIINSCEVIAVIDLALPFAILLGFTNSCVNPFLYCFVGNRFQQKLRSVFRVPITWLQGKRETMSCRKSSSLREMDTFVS
T1 sequence (P35351 whole entry): as above

In the case of `O=C(N1CCC(CC(=O)N(c2ccccc2)C2CCCC(F)(F)C2)(C(=O)O)CC1)N1CCc2ccccc21` (racemic) [Example 35, 4-[2-(N-(3,3-difluorocyclohexyl)anilino)-2-oxo-ethyl]-1-(indoline-1-carbonyl)piperidine-4-carboxylic acid], the Ki in data set [1] stood at 2.79 nM; in data set [2], 37300 nM.
The like results for `N#Cc1ccc2c(c1)N(C(=O)N1CCC(CC(=O)N(c3ccccc3)C3CCCC(F)(F)C3)(C(=O)O)CC1)CC2` (racemic) [Example 47, 1-(6-cyanoindoline-1-carbonyl)-4-[2-(N-(3,3-difluorocyclohexyl)anilino)-2-oxo-ethyl]piperidine-4-carboxylic acid] were, in that order, 1.34 nM and 37300 nM.
The corresponding values for `CN(C(=O)N1CCC(CC(=O)N(c2cccc(F)c2)C2CCCC(F)(F)C2)(C(=O)O)CC1)c1ccccc1` (racemic) [Example 53, 4-[2-(N-(3,3-difluorocyclohexyl)-3-fluoro-anilino)-2-oxo-ethyl]-1-[methyl(phenyl)carbamoyl]piperidine-4-carboxylic acid] are 0.342 nM and 37300 nM.
The corresponding values for `O=C(CC1(C(=O)O)CCN(C(=O)C2(c3ccccc3F)CC2)CC1)N(c1ccccc1)C1CCCC(F)(F)C1` (racemic) [Example 66, 4-[2-(N-(3,3-difluorocyclohexyl)anilino)-2-oxo-ethyl]-1-[1-(2-fluorophenyl)cyclopropanecarbonyl]piperidine-4-carboxylic acid] are 0.619 nM and 37300 nM.
With `CC(C)(C(=O)N1CCC(CC(=O)N(c2ccccc2)C2CCCC(F)(F)C2)(C(=O)O)CC1)c1ccccc1F` (racemic) [Example 67, 4-[2-(N-(3,3-difluorocyclohexyl)anilino)-2-oxo-ethyl]-1-[2-(2-fluorophenyl)-2-methyl-propanoyl]piperidine-4-carboxylic acid], the Ki in data set [1] amounted to 2.31 nM; in data set [2], 37300 nM.
As for `CN(C(=O)N1CCC(CC(=O)N(c2ccccc2)[C@H]2CCCC(F)(F)C2)(C(=O)O)CC1)c1ccc(F)cc1` (single isomer, unassigned) [44B (isomer 2)], in data set [2], the Ki amounted to 37300 nM.
Consider `O=C(N1CCC(CC(=O)N(c2ccccc2)C2CCCC(F)(F)C2)(C(=O)O)CC1)N1CCc2ccccc21` (single isomer, unassigned) [Example 35B, 4-[2-(N-(3,3-difluorocyclohexyl)anilino)-2-oxo-ethyl]-1-(indoline-1-carbonyl)piperidine-4-carboxylic acid], for which the figures for the Ki in data set [1] and in data set [2] were 1.03 nM and 37300 nM, respectively.
In data set [3], `COc1ccc2c(c1OCc1ccccc1)C[C@@H](C(=O)O)N(C(=O)C(c1ccccc1)c1ccccc1)C2` [EMA401, Olodanrigan, reference compound] gave a Ki of 4.47 nM. In data set [4], the IC50 was determined as 0.483 nM, the IC80 worked out at 3.03 nM, the “ex vivo IC50 (TER)” value stood at 0.108 TER and the “ex vivo IC80 (TER)” value stood at 0.678 TER. In data set [4] (rat adrenal, read-out: % RO), the receptor occupancy at 10 mg/kg was determined as 17.3%, the receptor occupancy at 30 mg/kg came to 84.7% and the receptor occupancy at 100 mg/kg worked out at 93.7%. Besides, in data set [5] (oral dose 1 mg/kg), the “[plasma, free, nM]” value is on record as 6.39 nM. The “[plasma, free, nM]” value in data set [5] (oral dose 3 mg/kg) is 18.9 nM. The “[plasma, free, nM]” value in data set [5] (oral dose 30 mg/kg) amounted to 6.28 nM. Further, in data set [5] (oral dose 100 mg/kg), the “[plasma, free, nM]” value came out at 15.7 nM. In data set [6] (dose 1 mg/kg, C21-induced increase in dermal blood flow), this molecule returned an inhibition at 1 mg/kg of 7.8%. For the same molecule, in data set [6] (dose 3 mg/kg, C21-induced increase in dermal blood flow), the inhibition at 3 mg/kg came to 47.2%. The molecule further displayed an inhibition at 10 mg/kg in data set [6] (dose 10 mg/kg, C21-induced increase in dermal blood flow) of 67.6%. This molecule also registered an inhibition at 30 mg/kg in data set [6] (C21-induced increase in dermal blood flow) of 86.9%. For the same molecule, the inhibition at 30 mg/kg in data set [6] (second, unlabelled column under % Inhibition) is 97.3%.
With `CCCCCN(C)C(=O)N1CCC(CC(=O)N(c2ccccc2)c2ccccc2)(C(=O)O)CC1` [Example 1, 1-[methyl(pentyl)carbamoyl]-4-[2-oxo-2-(N-phenylanilino)ethyl]piperidine-4-carboxylic acid], in data set [3], the Ki turned out to be 28.2 nM. In data set [4], the IC50 came out at 5.64 nM, it took 22.6 nM to reach the 80% level (IC80), the “ex vivo IC50 (TER)” value is reported as 0.200 TER and the “ex vivo IC80 (TER)” value was found to be 0.800 TER. Also, in data set [4] (rat adrenal, read-out: % RO), the receptor occupancy at 3 mg/kg came out at 23.4%, the receptor occupancy at 10 mg/kg was 44.6%, the receptor occupancy at 30 mg/kg was 41.6% and the receptor occupancy at 100 mg/kg amounted to 54.6%. Also, the “[plasma, free, nM]” value in data set [5] (oral dose 3 mg/kg) came out at 0.729 nM. Further, the “[plasma, free, nM]” value in data set [5] (oral dose 10 mg/kg) was 2.25 nM. For the same molecule, in data set [5] (oral dose 30 mg/kg), the “[plasma, free, nM]” value was found to be 6.42 nM. The “[plasma, free, nM]” value in data set [5] (oral dose 100 mg/kg) is listed as 10.4 nM.
For the molecule `CN(C(=O)N1CCC(CC(=O)N(c2ccccc2)c2ccccc2)(C(=O)O)CC1)c1ccc(F)cc1` [Example 2, 1-[(4-fluorophenyl)-methyl-carbamoyl]-4-[2-oxo-2-(N-phenylanilino)ethyl]piperidine-4-carboxylic acid], the Ki in data set [2] stood at 37300 nM. Also, the “[plasma, free, nM]” value is 0.0697 nM in data set [5] (oral dose 0.01 mg/kg), 0.0403 nM in data set [5] (oral dose 0.03 mg/kg), 0.153 nM in data set [5] (oral dose 0.3 mg/kg) and 0.772 nM in data set [5] (oral dose 3 mg/kg).
`CN(C(=O)N1CCC(CC(=O)N(c2ccccc2)c2ccc(F)cc2)(C(=O)O)CC1)c1ccc(F)cc1` [compound 30, 4-[2-(N-(4-fluorophenyl)anilino)-2-oxo-ethyl]-1-[(4-fluorophenyl)-methyl-carbamoyl]piperidine-4-carboxylic acid] returned a Ki in data set [3] of 0.6 nM. The receptor occupancy at 0.01 mg/kg in data set [4] (rat adrenal, oral dose 0.01 mg/kg, read-out: % RO) was 30.4%. Also, the receptor occupancy at 0.03 mg/kg in data set [4] (rat adrenal, oral dose 0.03 mg/kg, read-out: % RO) amounted to 3.46%. For the same molecule, the receptor occupancy at 0.3 mg/kg in data set [4] (rat adrenal, oral dose 0.3 mg/kg, read-out: % RO) stood at 45.6%. In addition, the receptor occupancy at 3 mg/kg in data set [4] (rat adrenal, read-out: % RO) is 88.7%.
